# Tests used:
# Test in all cases: relative viability (nuclei count vs DMSO), 5 days (fraction); higher = more cells survive
# [1] = compound: CCC1=CN=CN=C1N2CCN(CC2)CC3=NC4=C(N3)C=C(C=C4)C(F)(F)F + Cc1nc(Nc2ncc(C(=O)Nc3c(C)cccc3Cl)s2)cc(N2CCN(CCO)CC2)n1 [Dasatinib] (partner 0.075 µM)
# Summary of the method: (§1)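 Dosing by pin tool came one day after lung cancer cell lines were seeded in 1536-well plates, using either one drug or a fixed anchor-drug dose plus five library-drug doses (not always all listed) in √10 steps. After 5 days, nuclei were counted on 4× images. Relative viability is treated-well nuclei count divided by vehicle-well nuclei count, and values are medians of duplicate plates.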
# [2] = compound: CCC1=CN=CN=C1N2CCN(CC2)CC3=NC4=C(N3)C=C(C=C4)C(F)(F)F + NC(=O)Nc1cc(-c2cccc(F)c2)sc1C(=O)N[C@H]1CCCNC1 [AZD7762] (partner 0.2 µM)
# Summary of the method: as §1
# [3] = compound: CCn1c(-c2nonc2N)nc2cnc(Oc3cccc(NC(=O)c4ccc(OCCN5CCOCC5)cc4)c3)cc21 + NC(=O)Nc1cc(-c2cccc(F)c2)sc1C(=O)N[C@H]1CCCNC1 [AZD7762] (partner 0.2 µM)
# Summary of the method: as §1
# Mirin + Olaparib = compound: N=C1NC(=O)/C(=C/c2ccc(O)cc2)S1 [Mirin] + O=C(c1cc(Cc2n[nH]c(=O)c3ccccc23)ccc1F)N1CCN(C(=O)C2CC2)CC1 [Olaparib] (partner 8 µM)
# Summary of the method: as §1
Cell Line,relative viability ([1]; first compound 0.04 µM),relative viability ([1]; first compound 0.1265 µM),relative viability ([1]; first compound 0.4 µM),relative viability ([1]; first compound 1.265 µM),relative viability ([1]; first compound 4 µM),relative viability ([2]; first compound 0.04 µM),relative viability ([2]; first compound 0.1265 µM),relative viability ([2]; first compound 0.4 µM),relative viability ([2]; first compound 1.265 µM),relative viability ([2]; first compound 4 µM),relative viability ([3]; first compound 0.04 µM),relative viability ([3]; first compound 0.1265 µM),relative viability ([3]; first compound 0.4 µM),relative viability ([3]; first compound 1.265 µM),relative viability ([3]; first compound 4 µM),relative viability (Mirin + Olaparib; first compound 0.25 µM),relative viability (Mirin + Olaparib; first compound 0.7906 µM),relative viability (Mirin + Olaparib; first compound 2.5 µM),relative viability (Mirin + Olaparib; first compound 7.906 µM),relative viability (Mirin + Olaparib; first compound 25 µM)
NCI-H2170,0.547,0.631,0.487,0.505,0.475,0.899,0.832,0.83,0.724,0.941,0.763,0.74,0.749,0.577,0.478,0.582,0.548,0.576,0.597,0.601
HCC-366,0.566,0.655,0.567,0.583,0.629,0.33,0.256,0.219,0.226,0.302,0.233,0.123,0.101,0.0314,0.0325,0.377,0.376,0.346,0.426,0.335
NCI-H2405,0.158,0.189,0.207,,0.216,0.772,0.735,0.674,,0.901,0.446,0.18,0.14,0.144,0.137,0.916,,0.898,0.97,0.838
COR-L 105,0.279,0.316,0.362,0.399,0.338,,,,,,,,,,,0.738,0.843,0.696,0.683,0.683
201T,0.527,0.565,0.559,0.568,0.541,0.64,0.581,0.511,0.585,0.681,0.632,0.603,0.462,0.608,0.535,0.877,0.888,0.886,0.902,1.03
NCI-H2228,0.515,0.44,0.409,0.416,0.712,,,,,,,,,,,0.552,0.676,0.819,0.666,0.723
LC-2-ad,0.489,0.542,0.508,0.507,0.484,0.87,0.807,0.823,0.81,0.804,0.882,0.79,0.57,0.368,0.281,0.743,0.757,0.706,0.784,0.733
NCI-H2085,0.233,0.245,0.303,0.218,0.251,0.75,0.941,0.987,0.791,1.03,1.09,0.924,0.927,0.634,0.787,0.773,0.752,0.773,0.949,0.808
NCI-H358,0.234,0.147,0.179,0.14,0.172,0.614,0.436,0.453,0.51,0.485,0.517,0.56,0.329,0.293,0.337,0.6,0.86,0.584,0.487,0.601
H3255,0.308,0.294,0.347,0.367,0.317,0.86,0.852,0.824,0.931,0.874,0.967,0.737,0.742,0.383,0.481,0.55,0.539,0.541,0.537,0.547
NCI-H23,0.794,0.897,0.653,0.769,0.865,0.25,0.202,0.162,0.229,0.325,0.453,0.277,0.229,0.115,0.151,0.317,,0.342,0.248,0.377
CAL-12T,0.336,0.352,0.417,0.518,0.36,0.501,0.6,0.609,0.679,0.604,0.675,0.601,0.56,0.267,0.353,0.733,0.821,0.668,0.658,0.531
A-427,0.563,0.753,0.659,0.614,0.655,0.735,0.788,0.631,0.641,0.785,0.774,0.503,0.364,0.188,0.21,0.769,0.682,0.631,0.766,0.766
HARA,0.371,0.337,0.19,,0.203,0.484,0.263,0.339,0.292,0.436,0.215,0.161,0.148,0.207,0.198,1.08,,0.735,0.874,0.495
NCI-H1793,0.392,0.382,0.32,,0.307,0.548,0.407,0.392,0.334,0.347,0.483,0.284,0.276,0.179,0.157,0.649,,0.958,0.873,0.703
NCI-H1623,0.455,0.501,0.548,0.564,0.562,,,,,,,,,,,,,,,
NCI-H2009,0.269,0.309,0.298,0.249,0.275,,,,,,,,,,,0.727,0.737,0.684,0.524,0.675
ABC-1,0.66,0.507,0.614,0.495,0.449,0.766,0.906,0.702,0.956,0.869,0.96,0.663,0.445,0.402,0.625,0.887,0.618,0.78,0.593,0.41
IA-LM,,,,,,,,,,,,,,,,0.786,0.947,0.765,,0.902
NCI-H441,0.761,0.545,0.581,0.668,0.605,1.29,1.15,1.03,1.15,1.21,1.34,1.05,1.21,0.961,0.698,0.468,0.582,0.674,0.412,0.401
NCI-H1792,1,0.754,0.515,0.685,0.602,0.666,0.66,0.527,,0.685,0.541,0.37,0.15,0.106,0.11,0.533,0.392,0.484,0.383,0.495
LXF-289,0.161,0.21,0.242,0.191,0.209,1.3,1.01,1.1,1.29,1.05,1.19,1.23,0.638,0.506,0.224,1.04,1.04,1,1.04,0.975

Cell Line,relative viability ([1]; first compound 0.04 µM),relative viability ([1]; first compound 0.1265 µM),relative viability ([1]; first compound 0.4 µM),relative viability ([1]; first compound 1.265 µM),relative viability ([1]; first compound 4 µM),relative viability ([2]; first compound 0.04 µM),relative viability ([2]; first compound 0.1265 µM),relative viability ([2]; first compound 0.4 µM),relative viability ([2]; first compound 1.265 µM),relative viability ([2]; first compound 4 µM),relative viability ([3]; first compound 0.04 µM),relative viability ([3]; first compound 0.1265 µM),relative viability ([3]; first compound 0.4 µM),relative viability ([3]; first compound 1.265 µM),relative viability ([3]; first compound 4 µM),relative viability (Mirin + Olaparib; first compound 0.25 µM),relative viability (Mirin + Olaparib; first compound 0.7906 µM),relative viability (Mirin + Olaparib; first compound 2.5 µM),relative viability (Mirin + Olaparib; first compound 7.906 µM),relative viability (Mirin + Olaparib; first compound 25 µM)
HCC-827,0.323,0.298,0.313,0.364,0.355,0.186,0.233,0.208,0.196,0.174,0.241,0.23,0.233,0.178,0.203,0.627,0.704,0.647,0.626,0.623
EMC-BAC-2,0.358,0.354,0.322,,0.289,1.1,1.05,1.12,1.05,1.21,1.17,1.01,0.504,0.476,0.32,0.505,0.508,0.48,0.382,0.429
NCI-H596,0.679,0.608,0.555,,0.668,1.21,1.07,1.07,0.992,1.08,1.23,0.926,0.941,0.762,0.9,0.661,0.775,0.67,0.745,0.881
NCI-H1755,0.427,0.396,0.416,0.375,0.381,0.579,0.528,0.434,0.395,0.602,0.437,0.4,0.291,0.243,0.31,0.851,0.914,0.866,0.833,0.93
NCI-H1993,0.608,0.553,0.545,0.521,0.581,0.747,0.822,0.726,0.783,0.678,0.763,0.701,0.598,0.742,0.742,1.07,1.07,1.12,0.932,0.962
NCI-H2347,0.257,0.4,0.281,0.351,0.339,0.708,0.699,0.823,0.645,0.905,0.951,0.766,0.641,0.378,0.413,0.639,0.639,0.602,0.612,0.588
SK-MES-1,0.342,0.376,0.416,0.319,0.493,,,,,,,,,,,0.721,0.877,0.682,0.583,0.455
NCI-H2023,0.641,0.546,0.529,0.488,0.582,,,,,,,,,,,0.496,0.506,0.454,0.459,0.416
NCI-H1299,,,,,,,,,,,,,,,,1.03,1.01,0.958,0.867,1.03
NCI-H1563,0.472,0.476,0.489,0.435,0.513,,,,,,,,,,,,,,,
NCI-H1650,0.346,0.299,0.333,,0.309,,,,,,,,,,,0.789,0.929,0.817,0.755,0.732
Calu-6,,,,,,,,,,,,,,,,0.554,0.673,0.618,0.397,0.482
NCI-H661,0.951,0.872,0.827,0.772,0.909,,,,,,,,,,,0.713,0.759,0.712,0.707,0.655
NCI-H1703,,,,,,,0.148,0.125,,0.126,,0.111,0.115,0.119,0.123,0.414,0.384,0.412,,0.635
EBC-1,,,,,,,,,,,,,,,,0.707,0.783,0.693,0.561,0.471
NCI-H520,0.212,0.181,0.224,0.206,0.226,,,,,,,,,,,0.311,0.336,0.307,0.349,0.187
COR-L23,0.536,0.477,0.502,0.481,0.484,,,,,,,,,,,0.395,0.319,0.313,0.365,0.319
HCC-44,,,,,,1.04,0.946,0.977,1.13,0.986,1.07,1.18,0.916,0.975,0.333,0.99,1.11,0.97,0.964,1.1
NCI-H1648,,,,,,0.666,,,0.655,0.683,0.978,1.02,0.981,1.09,0.693,0.572,,0.955,0.639,0.764
SW 1573,0.382,0.453,0.5,0.494,0.452,,,,,,,,,,,0.481,0.408,0.46,0.37,0.271
SK-LU-1,0.18,0.172,0.2,0.169,0.205,,,,,,,,,,,0.5,0.532,0.449,0.357,0.425
A549,,,,,,,,,,,,,,,,0.342,0.229,0.333,0.243,0.367
